The assay has as its system 3T3 L1 fibroblasts. Nature of the assay: Glucose transport activity assay (14C-2-deoxy-D-glucose uptake). The class given is cell-based. To be noted: EC (effective concentration) for increase in glucose transport, 14C-2-deoxy-D-glucose, 3T3 L1 cells, read-out: Concentration (μM) to reach >150% activity of vehicle control. As to the method:
Glucose Transport Activity Assay.
Stimulation of the insulin receptor leads to the transport of glucose from the blood into cells, thus modulating blood glucose levels. 3T3 L1 fibroblasts (ATCC) were grown in Dulbecco's modified Eagle's medium (DMEM) with 10% fetal bovine serum (FBS). The cells were plated at a density of 3×10^4 cells/well in 24-well plates. Two days after confluence was reached, the cells were treated for 3 days with 0.5 mM isobutylmethylxanthine (IBMX), 1 μM dexamethasone, and 1.7 μM insulin. The cells were then transferred to DMEM with 10% FBS and supplemented with 1.7μM insulin for 2 more days. The cells were maintained in DMEM with 10% FBS for an additional 4 days. Finally the cells were serum-starved overnight in 0.1% bovine serum albumin (BSA) in DMEM.
The following day, the medium was replaced with 150 mM NaCl, 1.7 mM KCl, 0.9 mM CaCl2, K2HPO4 (pH 7.4) to which were added either the experimental compounds or their vehicle (DMSO). Insulin or its vehicle (0.01% BSA) was diluted in the assay buffer (containing test compound or vehicle, respectively) to final concentration of […]. After incubation for 30 min at 37° C., 5 μCi/ml ^14C-2-deoxy-D-glucose was added, and the incubation was continued for additional 30 min at 37° C. The cells were then washed 3 times with ice-cold PBS/20 mM glucose and lysed in 250 μl of lysis buffer (50 mM HEPES pH 7.6, 1% Triton X-100) for 30 min at room temperature. Radioactivity in the lysate was quantified by scintillation counting.
Once ^14C-2-deoxy-D-glucose is transported into the cell, it is not released. Glucose transport is, therefore, proportional to the amount of radioactivity in the lysate. The concentration of compound necessary to produce an increase in glucose transport to greater than 150% of the vehicle control (generally representing the sum of the standard deviation of the vehicle control plus the largest standard deviation of a test sample) was recorded as the EC (effective concentration). Shown in FIG. 3 is glucose uptake by cells at various concentrations when treated with Compound 13 and Compound 15.

The values that follow come from patent US7071231B2, “Naphthalene ureas as glucose uptake enhancers” (Telik, Inc., priority 1999, dated 2006).

Read-outs that look alike come from different tables or passages of the source.

With “5-({[7-({[(7-{[(3-carboxy-4-chlorophenyl)amino]sulfonyl}(2-naphthyl))amino]iminomethyl}amino)(2-naphthyl)]sulfonyl}amino)-2-chlorobenzoic acid [Compound 160]”, the EC (150% of vehicle control) worked out at 3.2 µM. As to “5-[({7-[3-(7-{[(3-carboxy-4-hydroxyphenyl)amino]sulfonyl}(2-naphthyl))-2-oxoimidazolidinyl](2-naphthyl)}sulfonyl)amino]-2-hydroxybenzoic acid [Compound 122]”, the EC (150% of vehicle control) is 32 µM. Regarding `O=C(Nc1ccc2ccc(S(=O)(=O)O)cc2c1)Nc1ccc2ccc(S(=O)(=O)Nc3ccc(S(=O)(=O)O)cc3)cc2c1` [Compound 20, 7-{[(7-{[(4-sulfophenyl)amino]sulfonyl}-2-naphthyl)amino]carbonylamino}naphthalene-2-sulfonic acid], where the note is “Mus musculus”, the EC (150% of vehicle control) is 3.2 µM.

In the case of `O=C(Nc1ccc2ccc(S(=O)(=O)Nc3ccc(S(=O)(=O)O)cc3)cc2c1)Nc1ccc2ccc(S(=O)(=O)Nc3ccc(S(=O)(=O)O)cc3)cc2c1` [Compound 22, 4{[(7-{[N-(7-{[(4-sulfophenyl)amino]sulfonyl}-2-naphthyl)carbamoyl]amino}-2-naphthyl)sulfonyl]amino}benzenesulfonic acid], where the note is “Mus musculus”, the EC (150% of vehicle control) was determined as 3.2 µM.

Regarding `O=C(Nc1ccc2ccc(S(=O)(=O)Nc3ccc(C(=O)O)cc3)cc2c1)Nc1ccc2ccc(S(=O)(=O)Nc3ccc(C(=O)O)cc3)cc2c1` [Compound 25, 4-{[(7-{[N-(7-{[(4-carboxyphenyl)amino]sulfonyl}-2-naphthyl)carbamoyl]amino}-2-naphthyl)sulfonyl]amino}benzoic acid], where the note is “Mus musculus”, the EC (150% of vehicle control) was 3.2 µM.

As for `O=C(Nc1ccc2ccc(S(=O)(=O)O)cc2c1)Nc1ccc2ccc(S(=O)(=O)Nc3cccc(C(=O)O)c3O)cc2c1` [Compound 30, 2-hydroxy-3-{[(7-{[N-(7-sulfo(2-naphthyl))carbamoyl]amino}(2-naphthyl))sulfonyl]amino}benzoic acid], where the note is “Mus musculus”, the EC (150% of vehicle control) turned out to be 3.2 µM. Still for that read-out and setting: for `O=C(Nc1ccc2ccc(S(=O)(=O)Nc3cccc(C(=O)O)c3O)cc2c1)Nc1ccc2ccc(S(=O)(=O)Nc3cccc(C(=O)O)c3O)cc2c1` [Compound 31, 3-{[(7-{[N-(7-{[(3-carboxy-2-hydroxyphenyl)amino]sulfonyl}(2-naphthyl))carbamoyl]amino}(2-naphthyl))sulfonyl]amino}-2-hydroxybenzoic acid] the value was 3.2 µM; for `O=C(Nc1ccc2ccc(S(=O)(=O)O)cc2c1)Nc1ccc2ccc(S(=O)(=O)Nc3ccc(O)c(C(=O)O)c3)cc2c1` [Compound 32, 2-hydroxy-5-{[(7-{[N-(7-sulfo(2-naphthyl))carbamoyl]amino}(2-naphthyl))sulfonyl]amino}benzoic acid], 32 µM; for `O=C(Nc1ccc2ccc(S(=O)(=O)Nc3ccc(O)c(C(=O)O)c3)cc2c1)Nc1ccc2ccc(S(=O)(=O)Nc3ccc(O)c(C(=O)O)c3)cc2c1` [Compound 33, 5-{[(7-{[N-(7-{[(3-carboxy-4-hydroxyphenyl)amino]sulfonyl}(2-naphthyl))carbamoyl]amino}(2-naphthyl))sulfonyl]amino}-2-hydroxybenzoic acid], 3.2 µM. On the same count and under the same terms, in the case of `O=C(Nc1ccc2ccc(S(=O)(=O)O)cc2c1)Nc1ccc2ccc(S(=O)(=O)Nc3ccc(C(=O)O)c(O)c3)cc2c1` [Compound 34, 2-hydroxy-4-{[(7-{[N-(7-sulfo(2-naphthyl))carbamoyl]amino}(2-naphthyl))sulfonyl]amino}benzoic acid] it was above 32 µM; in that of `O=C(Nc1ccc2ccc(S(=O)(=O)Nc3ccc(C(=O)O)c(O)c3)cc2c1)Nc1ccc2ccc(S(=O)(=O)Nc3ccc(C(=O)O)c(O)c3)cc2c1` [Compound 35, 4-{[(7-{[N-(7-{[(4-carboxy-3-hydroxyphenyl)amino]sulfonyl}(2-naphthyl))carbamoyl]amino}(2-naphthyl))sulfonyl]amino}-2-hydroxybenzoic acid], 32 µM.
